What follows are molecules tested on mouse (assay: Oral bioavailability: audiogenic mouse test and/or MES test). Details: oral administration.
Type: in vivo
Method: The oral bioavailability was tested using the audiogenic mouse test (Audiogenic seizures, R. L. Collins; Chapter 14, pages: 347-372. In: Experimental Models of Epilepsy; By: Pupura, Penry, Tower, Woodbury, Walter, Raven Press, New York, 1972. Standard Book Number: 0-911216-26-X) and/or the MES test.
(§1) Compounds of the invention were tested in OF1 mice using the maximal electroshock test (MES Test) described in detail by Schmutz et al., Naunyn-Schmiedeberg's Arch Pharmacol 1990, 342, 61-66. Briefly, generalized tonic-clonic convulsions of the hind extremities were induced by passing electrical current through temporal electrodes (50 Hz, 18 mA, 0.2s). […] 30 mg/kg carbamazepine was used as a positive control; mice were classified as protected by a compound if the duration of the seizure lasted only 3 second or less. Five mice were used for each treatment condition and the percentage of protected mice was used as readout (i.e. a compound could give 0%, 20%, 40%, 60%, 80% or 100% protection). Compounds of the invention were given at a dose of 50 mg/kg, p.o., 1 hour prior to induction of convulsions (i.e. “pre-treatment time -1 h”). ED50 values (ED: effective dose) were calculated using GraphPad Prism, v4.02. 15 s after shock administration, mouse blood was collected for determination of compounds' blood exposure.

| SMILES | In vivo orally active |
| --- | --- |
| Cn1nncc1-c1cc2c(=O)n(NS(C)(=O)=O)c(=O)[nH]c2cc1C(F)(F)F [Comparative, N-(6-(1-methyl-1H-1,2,3-triazol-5-yl)-2,4-dioxo-7-trifluoromethyl-1,4-dihydro-2H-quinazolin-3-yl]-methanesulfonamide, reference compound] | No |
| CC(O)c1cc2c(=O)n(NS(C)(=O)=O)c(=O)[nH]c2cc1C(F)(F)F (stereo not drawn) [Compound A-1, N-[6-(1-Hydroxy-ethyl)-2,4-dioxo-7-trifluoromethyl-1,4-dihydro-2H-quinazolin-3-yl]-methanesulfonamide] | Yes |
| COC(C)c1cc2c(=O)n(NS(C)(=O)=O)c(=O)[nH]c2cc1C(F)(F)F (stereo not drawn) [Compound A-2, N-[6-(1-Methoxy-ethyl)-2,4-dioxo-7-trifluoromethyl-1,4-dihydro-2H-quinazolin-3-yl]-methanesulfonamide] | Yes |
| CCC(O)c1cc2c(=O)n(NS(C)(=O)=O)c(=O)[nH]c2cc1C(F)(F)F (stereo not drawn) [Compound A-3, N-[6-(1-Hydroxy-propyl)-2,4-dioxo-7-trifluoromethyl-1,4-dihydro-2H-quinazolin-3-yl]-methanesulfonamide] | Yes |
| CC(C)OC(C)c1cc2c(=O)n(NS(C)(=O)=O)c(=O)[nH]c2cc1C(F)(F)F (stereo not drawn) [Compound A-4, N-[6-(1-Isopropoxy-ethyl)-2,4-dioxo-7-trifluoromethyl-1,4-dihydro-2H-quinazolin-3-yl]-methanesulfonamide] | Yes |
| CCOC(C)c1cc2c(=O)n(NS(C)(=O)=O)c(=O)[nH]c2cc1C(F)(F)F (stereo not drawn) [Compound A-5, N-[6-(1-Ethoxy-ethyl)-2,4-dioxo-7-trifluoromethyl-1,4-dihydro-2H-quinazolin-3-yl]-methanesulfonamide] | Yes |
| CCCOC(CC)c1cc2c(=O)n(NS(C)(=O)=O)c(=O)[nH]c2cc1C(F)(F)F (stereo not drawn) [Compound A-6, N-[2,4-Dioxo-6-(1-propoxy-propyl)-7-trifluoromethyl-1,4-dihydro-2H-quinazolin-3-yl]-methanesulfonamide] | Yes |
| CCC(OC(C)C)c1cc2c(=O)n(NS(C)(=O)=O)c(=O)[nH]c2cc1C(F)(F)F (stereo not drawn) [Compound A-7, N-[6-(1-isopropoxy-propyl)-2,4-dioxo-7-trifluoromethyl-1,4-dihydro-2H-quinazolin-3-yl]-methanesulfonamide] | Yes |
| CCOC(CC)c1cc2c(=O)n(NS(C)(=O)=O)c(=O)[nH]c2cc1C(F)(F)F (stereo not drawn) [Compound A-13, N-[6-(1-Ethoxy-propyl)-2,4-dioxo-7-trifluoromethyl-1,4-dihydro-2H-quinazolin-3-yl]-methanesulfonamide] | Yes |
| CC(OC1CCCC1)c1cc2c(=O)n(NS(C)(=O)=O)c(=O)[nH]c2cc1C(F)(F)F (stereo not drawn) [Compound A-14, N-[6-(1-Cyclopentyloxy-ethyl)-2,4-dioxo-7-trifluoromethyl-1,4-dihydro-2H-quinazolin-3-yl]-methanesulfonamide] | yes |
| CCCC(O)c1cc2c(=O)n(NS(C)(=O)=O)c(=O)[nH]c2cc1C(F)(F)F (stereo not drawn) [Compound A-15, N-[6-(1-Hydroxy-butyl)-2,4-dioxo-7-trifluoromethyl-1,4-dihydro-2H-quinazolin-3-yl]-methanesulfonamide] | Yes |
| COCCC(O)c1cc2c(=O)n(NS(C)(=O)=O)c(=O)[nH]c2cc1C(F)(F)F (stereo not drawn) [Compound A-18, N-[6-(1-Hydroxy-3-methoxy-propyl)-2,4-dioxo-7-trifluoromethyl-1,4-dihydro-2H-quinazolin-3-yl]-methanesulfonamide] | Yes |
| CS(=O)(=O)Nn1c(=O)[nH]c2cc(C(F)(F)F)c(C3CCCO3)cc2c1=O (stereo not drawn) [Compound B-2, N-[2,4-Dioxo-6-(tetrahydro-furan-2-yl)-7-trifluoromethyl-1,4-dihydro-2H-quinazolin-3-yl]-methanesulfonamide] | Yes |
| CS(=O)(=O)Nn1c(=O)[nH]c2cc(C(F)(F)F)c(C3CCOC3)cc2c1=O (stereo not drawn) [Compound B-3, N-[2,4-Dioxo-6-(tetrahydro-furan-3-yl)-7-trifluoromethyl-1,4-dihydro-2H-quinazolin-3-yl]-methanesulfonamide] | Yes |
| COCCn1nccc1-c1cc2c(=O)n(NS(C)(=O)=O)c(=O)[nH]c2cc1C(C)C [Compound C-1, N-{7-Isopropyl-6-[2-(2-methoxy-ethyl)-2H-pyrazol-3-yl]-2,4-dioxo-1,4-dihydro-2H-quinazolin-3-yl}-methanesulfonamide] | yes |
| CC(C)n1nccc1-c1cc2c(=O)n(NS(C)(=O)=O)c(=O)[nH]c2cc1C(F)(F)F [Compound C-2, N-[6-(2-Isopropyl-2H-pyrazol-3-yl)-2,4-dioxo-7-trifluoromethyl-1,4-dihydro-2H-quinazolin-3-yl]-methanesulfonamide] | Yes |
| CC(C)n1nccc1-c1cc2c(=O)n(NS(C)(=O)=O)c(=O)[nH]c2cc1CF [Compound C-3, N-[7-Fluoromethyl-6-(2-isopropyl-2H-pyrazol-3-yl)-2,4-dioxo-1,4-dihydro-2H-quinazolin-3-yl]-methanesulfonamide] | Yes |
| COCCn1nccc1-c1cc2c(=O)n(NS(C)(=O)=O)c(=O)[nH]c2cc1C(F)(F)F [Compound C-4, N-{6-[2-(2-Methoxy-ethyl)-2H-pyrazol-3-yl]-2,4-dioxo-7-trifluoromethyl-1,4-dihydro-2H-quinazolin-3-yl}-methanesulfonamide] | Yes |
| CS(=O)(=O)Nn1c(=O)[nH]c2cc(C(F)(F)F)c(-c3ccnn3O)cc2c1=O [Compound C-5, N-[6-(2-Hydroxy-2H-pyrazol-3-yl)-2,4-dioxo-7-trifluoromethyl-1,4-dihydro-2H-quinazolin-3-yl]-methanesulfonamide] | Yes |
| CC(C)c1cc2[nH]c(=O)n(NS(C)(=O)=O)c(=O)c2cc1-c1ccnn1C [Compound C-7, N-[7-Isopropyl-6-(2-methyl-2H-pyrazol-3-yl)-2,4-dioxo-1,4-dihydro-2H-quinazolin-3-yl]-methanesulfonamide] | Yes |
| Cn1nccc1-c1cc2c(=O)n(NS(C)(=O)=O)c(=O)[nH]c2cc1C(F)F [Compound C-9, N-[7-Difluoromethyl-6-(2-methyl-2H-pyrazol-3-yl)-2,4-dioxo-1,4-dihydro-2H-quinazolin-3-yl]-methanesulfonamide] | Yes |
| CC(C)n1nccc1-c1cc2c(=O)n(NS(C)(=O)=O)c(=O)[nH]c2cc1C(F)F [Compound C-10, N-[7-Difluoromethyl-6-(2-isopropyl-2H-pyrazol-3-yl)-2,4-dioxo-1,4-dihydro-2H-quinazolin-3-yl]-methanesulfonamide] | Yes |
| CCc1cc2[nH]c(=O)n(NS(C)(=O)=O)c(=O)c2cc1-c1ccnn1C [Compound C-11, N-[7-Ethyl-6-(2-methyl-2H-pyrazol-3-yl)-2,4-dioxo-1,4-dihydro-2H-quinazolin-3-yl]-methanesulfonamide] | Yes |
| CCc1cc2[nH]c(=O)n(NS(C)(=O)=O)c(=O)c2cc1-c1ccnn1CC [Compound C-12, N-[7-Ethyl-6-(2-ethyl-2H-pyrazol-3-yl)-2,4-dioxo-1,4-dihydro-2H-quinazolin-3-yl]-methanesulfonamide] | Yes |
| CC(C)n1nccc1-c1cc2c(=O)n(NS(C)(=O)=O)c(=O)[nH]c2cc1C(C)(F)F [Compound C-16, N-[7-(1,1-difluoro-ethyl)-6-(2-isopropyl-2H-pyrazol-3-yl)-2,4-dioxo-1,4-dihydro-2H-quinazolin-3-yl]-methanesulfonamide] | Yes |
| CC(F)c1cc2[nH]c(=O)n(NS(C)(=O)=O)c(=O)c2cc1-c1ccnn1C(C)C (stereo not drawn) [Compound C-17, N-[7-(1-fluoro-ethyl)-6-(2-isopropyl-2H-pyrazol-3-yl)-2,4-dioxo-1,4-dihydro-2H-quinazolin-3-yl]-methanesulfonamide] | Yes |
| Cn1nccc1-c1cc2c(=O)n(NS(C)(=O)=O)c(=O)[nH]c2cc1C(F)(F)F [Compound C-18, N-[6-(2-Methyl-2H-pyrazol-3-yl)-2,4-dioxo-7-trifluoromethyl-1,4-dihydro-2H-quinazolin-3-yl]-methanesulfonamide] | Yes |

The molecules below were run on OF1 mice (assay: Murine maximal electroshock test (MES Test)). Details: Mus musculus, po, pre-treatment time 1 h; protected = seizure duration 3 s or less.
Type: in vivo
Method: as §1

| SMILES | ED50 |
| --- | --- |
| CC(C)n1nccc1-c1cc2c(=O)n(NS(C)(=O)=O)c(=O)[nH]c2cc1CF [Compound C-3, N-[7-Fluoromethyl-6-(2-isopropyl-2H-pyrazol-3-yl)-2,4-dioxo-1,4-dihydro-2H-quinazolin-3-yl]-methanesulfonamide] | 13.5 mg/kg |

Same assay, conditions: p.o., pre-treatment time 1 h; protected = seizure duration 3 s or less

| SMILES | MES-Test (1 h, po) ED50 |
| --- | --- |
| CS(=O)(=O)Nn1c(=O)[nH]c2cc(C(F)(F)F)c(C3CCCO3)cc2c1=O [B-2 (R), N-[2,4-Dioxo-6-(tetrahydro-furan-2-yl)-7-trifluoromethyl-1,4-dihydro-2H-quinazolin-3-yl]-methanesulfonamide] | 12.8 mg/kg |
| CS(=O)(=O)Nn1c(=O)[nH]c2cc(C(F)(F)F)c(C3CCCO3)cc2c1=O [B-2 (S), N-[2,4-Dioxo-6-(tetrahydro-furan-2-yl)-7-trifluoromethyl-1,4-dihydro-2H-quinazolin-3-yl]-methanesulfonamide] | 33.2 mg/kg |

Same assay, conditions: percentage of protected mice (5 per condition) @25, p.o., 1 h

| SMILES | MES-Test (1 h, po) protection @25 |
| --- | --- |
| CS(=O)(=O)Nn1c(=O)[nH]c2cc(C(F)(F)F)c(C3CCOC3)cc2c1=O (stereo not drawn) [Compound B-3, N-[2,4-Dioxo-6-(tetrahydro-furan-3-yl)-7-trifluoromethyl-1,4-dihydro-2H-quinazolin-3-yl]-methanesulfonamide] | 20% @25^3 |
| COCCn1nccc1-c1cc2c(=O)n(NS(C)(=O)=O)c(=O)[nH]c2cc1C(C)C [Compound C-1, N-{7-Isopropyl-6-[2-(2-methoxy-ethyl)-2H-pyrazol-3-yl]-2,4-dioxo-1,4-dihydro-2H-quinazolin-3-yl}-methanesulfonamide] | 40% @25 |

Same assay, conditions: percentage of protected mice (5 per condition) @50, p.o., 1 h

| SMILES | MES-Test (1 h, po) protection @50 |
| --- | --- |
| Cn1nncc1-c1cc2c(=O)n(NS(C)(=O)=O)c(=O)[nH]c2cc1C(F)(F)F [Comparative, N-(6-(1-methyl-1H-1,2,3-triazol-5-yl)-2,4-dioxo-7-trifluoromethyl-1,4-dihydro-2H-quinazolin-3-yl]-methanesulfonamide, reference compound] | 0% @50 |

— patent US20130096145A1, “Use of 1H-quinazoline-2,4-diones” (Novartis AG, priority 2010, published 2013)
